# Legend:
# Ixodes ricinus = assay: whole plant or invertebrate; assay type: in vivo; conditions: for pest or weed control at 1 µg/cm2, 1 µg/cm2 / pest or weed control at 5 µg/cm2, 5 µg/cm2 / pest or weed control at 25 µg/cm2, 25 µg/cm2: Ixodes ricinus, read-out: mean percentage of ticks affected
# Aedes aegypti [1] = assay: in vitro Warm Body assay, substance applied on glass Petri dish on top of the warm body (deterrence and repellence); assay type: in vivo
# Protocol: (§1) The controlling effect, repellence & spatial repellence, according to the present invention is determined by testing the Warm Body assay against the yellow fever mosquito, Aedes aegypti Rockefeller strain. […] Observations of controlling efficacy were made on host-seeking females of uniform age, 5 to 10 days old selected as mentioned in the publication mentioned hereinabove. Tested hungry females had access to 10% sugar solution but were not blood-fed. Further information is provided in the accompanying examples.
# (§2) The published protocol has been adapted in not manually counting the landing mosquitoes but automatically using an automatic counting software, the switch from Anopheles gambiae to A. aegypti led to a decrease of mosquitoes’ number placed in the tested cage due to the size difference (i.e. 30 mosquitoes instead of 50) and to an increase of lighting as A. aegypti is a diurnal mosquitoes (i.e. 150 lux instead of 4 lux). Further information is provided in the accompanying examples.,
# (§3) The controlling effect of the compositions according to the present invention was assessed using an adapted Warm Body assay as defined in Kröber T, Kessler S, Frei J, Bourquin M, Guerin PM. 2010. An in vitro assay for testing mosquito controlling compounds employing a warm body and carbon dioxide as a behavioral activator. J Am Mosq Control Assoc. 26:381-386. In this in-vitro assay the number of mosquito landing on a warm body, simulating an attractive host treated with the tested stimuli, was measured in order to assess the repellence effect.
# as §2, with “to Aedes” for “to A.”, “lux).” for “lux). Further information is provided in the accompanying examples.,”
# (§4) In addition, since the inventors were interested by assessing spatial repellence added or not to a deterrent effect, the substance was applied using two different technics. Whether, as in Kröber et al. (2010), both deterrent and repellent effect were investigated (i.e. similar effect than most body care applications such as lotion) and the substances was applied on a sandblasted glass Petri dish placed on top of the warm body. Whether only the spatial repellence was investigated (i.e. similar effect than most home care applications such as liquid electric dispenser) and the substance was introduced in the cage space thanks to a forced evaporation system as described in Chappuis C J-F, Niclass Y, Vuilleumier C, Starkenmann C. 2015. Quantitative Headspace Analysis of Selected Odorants from Latrines in Africa and India. Environ. Sci. Technol. 49:6134-6140.
# (§5) As stated in Kröber et al. (2010), selected 10-12 days old hungry females, that had ad libitum access to 10% sugar solution but were not blood-fed, were selected for the assay.
# On the sandblasted glass Petri dish covering the warm body (28.3 cm^2), 100 µL of the substances diluted at different concentrations in ethanol was applied. The number of mosquito landing on the warm body was counted for each stimuli, N,N-diethyl-3-methylbenzamide (DEET) and ethyl 3-[acetyl(butyl)amino]propanoate (IR3535) being used as benchmarks and pure ethanol as control.
# Aedes aegypti [2] = assay: in vitro Warm Body assay, substance introduced in the cage air by forced evaporation (spatial repellence); assay type: in vivo
# Protocol: as §1, §2, §3
# as §2, with “to Aedes” for “to A.”, “lux).” for “lux). Further information is provided in the accompanying examples.,”
# as §4, §5
# The forced evaporation system allows to fill the volume of the cage with stimuli tested, (2-methyl-4-oxo-3-prop-2-ynylcyclopent-2-en-1-yl) 2,2-dimethyl-3-(2-methylprop-1-enyl)cyclopropane-1-carboxylate (prallethrin) and N,N-diethyl-3-methylbenzamide (DEET) being used as benchmarks. In order to limit potential dead volumes in the cage, five flushes of the cage were made before starting the 2 minutes test during which the number of mosquito landings was counted.
# Aedes aegypti [3] = assay: in vivo Arm-in-cage assay on human volunteers; conditions: for decrease of the percentage of mosquito landing on the arm: 20% applied on arm skin (600 cm^2), three volunteers
# Protocol: The controlling effect, repellence & spatial repellence, according to the present invention is also determined according to an arm in the box method adapted from the WHO Guidelines for efficacy testing of mosquito repellents for human skin (WHO/CDS/NTD/WHOPES/2009.4). […] Further information is provided in the accompanying examples.
# The Arm in the box method was adapted from the WHO Guidelines for efficacy testing of mosquito repellents for human skin (WHO/CDS/NTD/WHOPES/2009.4). The readiness of 100 hungry female mosquitoes A. aegypti to probe is assessed by inserting an untreated arm into the cage (40×40×40 cm) for 30 seconds (negative control) three times (once at the beginning, once at the fourth hour and once at the eighth hour), to determine probing activity. Then, the product is applied onto the skin of the forearm of a human volunteer (1 mL per 600 cm^2) and after 5 minutes, this arm is inserted into the cage and exposed for 3 minutes. The assay take place in temperature (27±2° C.) and humidity (80±10%RH) regulated room on three different volunteers.
# Arm-in-cage test is a compulsory assay for most biocide registrations to assess the efficacy of a substance. It is a very challenging test as the treated arm of a volunteer is being placed in a space containing a density of […] blood hungry mosquitoes / m^3 of air.
# [4] = 0.04% in ethanol, ethanol control 59.3±6.9 landings
# [5] = 1% in ethanol, ethanol control 59.3±6.9 landings
# [6] = […] in ethanol, ethanol control 59.3±6.9 landings
# [7] = 0.0017 µg/L air, without substance 54.7±3.2
# [8] = 0.017 µg/L air, without substance 54.7±3.2
# [9] = 0.17 µg/L air, without substance 54.7±3.2
# [10] = 1.7 µg/L air, without substance 54.7±3.2
# [11] = 17 µg/L air, without substance 54.7±3.2
structure (smiles),measurement,setting,value
COc1cc(C=O)ccc1O [4-hydroxy-3-methoxybenzaldehyde],"pest or weed control at 1 µg/cm2, 1 µg/cm2",Ixodes ricinus,14%
same,"pest or weed control at 5 µg/cm2, 5 µg/cm2",Ixodes ricinus,44%
same,"pest or weed control at 25 µg/cm2, 25 µg/cm2",Ixodes ricinus,73%
same,number of mosquitoes landing within 2 minutes on the warm body,Aedes aegypti [1]; [4],9.0
same,number of mosquitoes landing within 2 minutes on the warm body,Aedes aegypti [1]; [5],3.0
same,number of mosquitoes landing within 2 minutes on the warm body,Aedes aegypti [1]; [6],19.0
same,"number of mosquitoes landing within 2 minutes on the warm body, air in the cage saturated with stimulus",Aedes aegypti [2]; [7],17.0
same,"number of mosquitoes landing within 2 minutes on the warm body, air in the cage saturated with stimulus",Aedes aegypti [2]; [8],9.0
same,"number of mosquitoes landing within 2 minutes on the warm body, air in the cage saturated with stimulus",Aedes aegypti [2]; [9],1.5
same,"number of mosquitoes landing within 2 minutes on the warm body, air in the cage saturated with stimulus",Aedes aegypti [2]; [10],3.5
same,"number of mosquitoes landing within 2 minutes on the warm body, air in the cage saturated with stimulus",Aedes aegypti [2]; [11],1.0
same,decrease of the percentage of mosquito landing on the arm,Aedes aegypti [3]; 5 min post-application,82±5.2%
same,decrease of the percentage of mosquito landing on the arm,Aedes aegypti [3]; 1 h post-application,78±2.6%
same,decrease of the percentage of mosquito landing on the arm,Aedes aegypti [3]; 2 h post-application,66±8.0%
same,decrease of the percentage of mosquito landing on the arm,Aedes aegypti [3]; 3 h post-application,61±6%
same,decrease of the percentage of mosquito landing on the arm,Aedes aegypti [3]; 4 h post-application,63±2%
CCCCCC1CCCC(=O)O1 (stereo not shown) [6-pentyloxan-2-one],number of mosquitoes landing within 2 minutes on the warm body,"Aedes aegypti [1]; 0.04% in ethanol, ethanol control 67.0±8.8 landings",7.0
same,number of mosquitoes landing within 2 minutes on the warm body,"Aedes aegypti [1]; 1% in ethanol, ethanol control 67.0±8.8 landings",2.0
same,number of mosquitoes landing within 2 minutes on the warm body,"Aedes aegypti [1]; […] in ethanol, ethanol control 67.0±8.8 landings",90.0
same,"number of mosquitoes landing within 2 minutes on the warm body, air in the cage saturated with stimulus","Aedes aegypti [2]; 0.0017 µg/L air, without substance 54.1±4.9",43.0
same,"number of mosquitoes landing within 2 minutes on the warm body, air in the cage saturated with stimulus","Aedes aegypti [2]; 0.017 µg/L air, without substance 54.1±4.9",4.0
same,"number of mosquitoes landing within 2 minutes on the warm body, air in the cage saturated with stimulus","Aedes aegypti [2]; 0.17 µg/L air, without substance 54.1±4.9",28.0
same,"number of mosquitoes landing within 2 minutes on the warm body, air in the cage saturated with stimulus","Aedes aegypti [2]; 1.7 µg/L air, without substance 54.1±4.9",0.5
same,"number of mosquitoes landing within 2 minutes on the warm body, air in the cage saturated with stimulus","Aedes aegypti [2]; 17 µg/L air, without substance 54.1±4.9",0.0
same,repellence in the arm-in-cage test,Aedes aegypti [3]; maintained for more than 4h (FIG. 3),above 75%
C=C(C)[C@@H]1CC=C(C)C(=O)C1 [(5R)-2-methyl-5-prop-1-en-2-ylcyclohex-2-en-1-one],"pest or weed control at 1 µg/cm2, 1 µg/cm2",Ixodes ricinus,50%
same,"pest or weed control at 5 µg/cm2, 5 µg/cm2",Ixodes ricinus,17%
same,"pest or weed control at 25 µg/cm2, 25 µg/cm2",Ixodes ricinus,57%
same,number of mosquitoes landing within 2 minutes on the warm body,Aedes aegypti [1]; [4],16.0
same,number of mosquitoes landing within 2 minutes on the warm body,Aedes aegypti [1]; [5],3.0
same,number of mosquitoes landing within 2 minutes on the warm body,Aedes aegypti [1]; [6],24.0
same,"number of mosquitoes landing within 2 minutes on the warm body, air in the cage saturated with stimulus",Aedes aegypti [2]; [7],20.0
same,"number of mosquitoes landing within 2 minutes on the warm body, air in the cage saturated with stimulus",Aedes aegypti [2]; [8],27.0
same,"number of mosquitoes landing within 2 minutes on the warm body, air in the cage saturated with stimulus",Aedes aegypti [2]; [9],2.0
same,"number of mosquitoes landing within 2 minutes on the warm body, air in the cage saturated with stimulus",Aedes aegypti [2]; [10],2.0
same,"number of mosquitoes landing within 2 minutes on the warm body, air in the cage saturated with stimulus",Aedes aegypti [2]; [11],2.0
"C/C=C/C(=O)C1C(C)=CCCC1(C)C (stereo not shown) [(E)-1-(2,6,6-trimethylcyclohex-2-en-1-yl)but-2-en-1-one]","pest or weed control at 1 µg/cm2, 1 µg/cm2",Ixodes ricinus,13%
same,"pest or weed control at 5 µg/cm2, 5 µg/cm2",Ixodes ricinus,6%
same,"pest or weed control at 25 µg/cm2, 25 µg/cm2",Ixodes ricinus,83%
same,number of mosquitoes landing within 2 minutes on the warm body,"Aedes aegypti [1]; 0.04% in ethanol, ethanol control 67.1±9.1 landings",34.0
same,number of mosquitoes landing within 2 minutes on the warm body,"Aedes aegypti [1]; 1% in ethanol, ethanol control 67.1±9.1 landings",9.0
same,number of mosquitoes landing within 2 minutes on the warm body,"Aedes aegypti [1]; […] in ethanol, ethanol control 67.1±9.1 landings",70.0
same,"number of mosquitoes landing within 2 minutes on the warm body, air in the cage saturated with stimulus","Aedes aegypti [2]; 0.0017 µg/L air, without substance 56.0±3.6",6.0
same,"number of mosquitoes landing within 2 minutes on the warm body, air in the cage saturated with stimulus","Aedes aegypti [2]; 0.017 µg/L air, without substance 56.0±3.6",11.0
same,"number of mosquitoes landing within 2 minutes on the warm body, air in the cage saturated with stimulus","Aedes aegypti [2]; 0.17 µg/L air, without substance 56.0±3.6",4.0
same,"number of mosquitoes landing within 2 minutes on the warm body, air in the cage saturated with stimulus","Aedes aegypti [2]; 1.7 µg/L air, without substance 56.0±3.6",4.0
same,"number of mosquitoes landing within 2 minutes on the warm body, air in the cage saturated with stimulus","Aedes aegypti [2]; 17 µg/L air, without substance 56.0±3.6",1.0
same,repulsion,Aedes aegypti [2]; at all five tested concentrations,more than 80%
same,landings in 2 minutes,Aedes aegypti [2]; dose of 0.17 µg/L of air,less than five
O=c1ccc2ccccc2o1 [chromen-2-one],"pest or weed control at 1 µg/cm2, 1 µg/cm2",Ixodes ricinus,27%
same,"pest or weed control at 5 µg/cm2, 5 µg/cm2",Ixodes ricinus,71%
same,"pest or weed control at 25 µg/cm2, 25 µg/cm2",Ixodes ricinus,80%
same,tick response compared with the benchmark IR3535,Ixodes ricinus; concentrations tested,response similar to the benchmark IR3535
same,number of mosquitoes landing within 2 minutes on the warm body,Aedes aegypti [1]; [4],0.0
same,number of mosquitoes landing within 2 minutes on the warm body,Aedes aegypti [1]; [5],1.0
same,number of mosquitoes landing within 2 minutes on the warm body,Aedes aegypti [1]; [6],118.0
same,"number of mosquitoes landing within 2 minutes on the warm body, air in the cage saturated with stimulus",Aedes aegypti [2]; [7],36.0
same,"number of mosquitoes landing within 2 minutes on the warm body, air in the cage saturated with stimulus",Aedes aegypti [2]; [8],3.0
same,"number of mosquitoes landing within 2 minutes on the warm body, air in the cage saturated with stimulus",Aedes aegypti [2]; [9],10.0
same,"number of mosquitoes landing within 2 minutes on the warm body, air in the cage saturated with stimulus",Aedes aegypti [2]; [10],1.0
same,"number of mosquitoes landing within 2 minutes on the warm body, air in the cage saturated with stimulus",Aedes aegypti [2]; [11],0.0
